This note sets out measurements from ChEMBL document CHEMBL4411299, “A class of novel tubulin polymerization inhibitors exert effective anti-tumor activity via mitotic catastrophe” (Eur J Med Chem, 2019).

The subject of data set [1] is HT-29. The data set is described as follows: Antiproliferative activity against human HT-29 cells after 48 hrs by MTT assay. Format: functional. The conditions noted are these: HT-29, 48 h. (Tetrazolium dyes change colour on reduction, which living cells bring about.)
Data set [2] deals with HeLa. As to the kind of experiment: Antiproliferative activity against human HeLa cells after 48 hrs by MTT assay. Type of data set: functional.
The test system of data set [3] is HeLa. As to the kind of experiment: Inhibition of colony formation in human HeLa cells after 2 weeks by crystal violet staining-based assay. Format: functional, cell-based.
Data set [4] has as its system HeLa. The data set is described as follows: Inhibition of colony formation in human HeLa cells at 0.1 uM after 2 weeks by crystal violet staining-based assay relative to control. The conditions noted are these: 336 h. Format: functional.
In data set [5] the test system is HeLa. As to the kind of experiment: Cell cycle arrest in human HeLa cells assessed as reduction in accumulation of cells at S phase up to 0.4 uM after 24 hrs by propidium iodide staining-based flow cytometric analysis. Type of data set: functional.
For data set [6], the system named is HeLa. As to the kind of experiment: Induction of apoptosis in human HeLa cells assessed as late apoptotic cells at 0.05 uM after 24 hrs by Annexin V-FITC/propidium iodide staining-based flow cytometric analysis (reference value: 3.51%). Format: functional. A general note: Flow cytometry measures light scatter and fluorescence of single cells or particles in a stream.

The subject of data set [7] is HeLa. The data set is described as follows: Induction of apoptosis in human HeLa cells assessed as necrotic cells at 0.05 uM after 24 hrs by Annexin V-FITC/propidium iodide staining-based flow cytometric analysis (reference value: 0.05%). Type of data set: functional.
Data set [8] relates to HeLa. The data set is described as follows: Induction of apoptosis in human HeLa cells assessed as viable cells at 0.1 uM after 24 hrs by Annexin V-FITC/propidium iodide staining-based flow cytometric analysis (reference value: 92.8%). The conditions noted are these: read-out: Activity. Format: functional.
Data set [9] deals with HeLa. The data set is described as follows: Induction of apoptosis in human HeLa cells assessed as early apoptotic cells at 0.1 uM after 24 hrs by Annexin V-FITC/propidium iodide staining-based flow cytometric analysis (reference value: 3.65%). Type of data set: functional.
Data set [10] deals with HeLa. The data set is described as follows: Induction of apoptosis in human HeLa cells assessed as increase in cleaved PARP level at 0.02 to 0.1 uM after 24 hrs by Western blot analysis. Format: functional, cell-based.
The test system of data set [11] is HeLa. As to the kind of experiment: Induction of ROS generation in human HeLa cells at 0.02 to 0.2 uM after 12 hrs by DCFH-DA staining-based flow cytometric analysis. Type of data set: functional, cell-based.
The target in data set [12] is T1, Tubulin (Homo sapiens) (UniProt P68371+Q9H4B7+P0DPH7+P68366+Q13509+Q71U36+P04350+Q3ZCM7+P07437+P68363+Q9BQE3+Q6PEY2+Q13885+Q9BVA1+Q9BUF5). The data set is described as follows: Inhibition of tubulin polymerization in human HeLa cells assessed as multipolar spindle formation at 0.02 after 12 hrs by DAPI staining-based confocal fluorescence microscopic analysis. Type of data set: cell-based.

The target of data set [13] is T1, Tubulin (Homo sapiens). As to the kind of experiment: Inhibition of tubulin polymerization in human HeLa cells assessed as induction of shorter microtubule fibers at 0.02 uM after 12 hrs by DAPI staining-based confocal fluorescence microscopic analysis. Format: cell-based.
The target in data set [14] is T1, Tubulin (Homo sapiens). The data set is described as follows: Inhibition of tubulin polymerization in human HeLa cells assessed as induction of multinuclear giant cells at 0.05 after 12 hrs by DAPI staining-based confocal fluorescence microscopic analysis. Format: cell-based.
A short description of data set [15]: Stability in human liver microsomes assessed as parent compound remaining at 5 uM after 2 hrs in presence of NADPH regenerating system by LC-MS/MS analysis. Type of data set: ADME, Microsome. (Microsomes from liver hold many membrane-bound enzymes, among them those of drug oxidation.)
A short description of data set [16]: Half life in monkey liver microsomes at 5 uM in presence of NADPH regenerating system by LC-MS/MS analysis. Type of data set: ADME, Macaca mulatta, Microsome. The settings on record: rhesus monkey.
Data set [17] can be described thus: Half life in rat liver microsomes at 5 uM in presence of NADPH regenerating system by LC-MS/MS analysis. Format: ADME, Microsome.
Data set [18] can be described thus: Cmax in Sprague-Dawley rat at 1.5 mg/kg, iv administered as single dose by LC-MS/MS analysis. Type of data set: ADME, organism-based. On the set-up: dose 1.5 mg/kg, route intravenous. The conditions noted are these: in vivo.
The nature of data set [19]: AUC (0 to infinity) in female Sprague-Dawley rat at 1.5 mg/kg, iv administered as single dose by LC-MS/MS analysis. The settings on record: in vivo. Type of data set: ADME, organism-based. Set-up: dose 1.5 mg/kg, time infinity, route intravenous.
Data set [20] in a line: Half life in male Sprague-Dawley rat at 1.5 mg/kg, iv administered as single dose by LC-MS/MS analysis. Type of data set: ADME, organism-based. The conditions noted are these: in vivo.
The nature of data set [21]: Clearance in male Sprague-Dawley rat at 1.5 mg/kg, iv administered as single dose by LC-MS/MS analysis. The conditions noted are these: in vivo. Format: ADME, organism-based.
Data set [22] in a line: Cmax in male Sprague-Dawley rat at 1.5 mg/kg, iv administered as single dose by LC-MS/MS analysis. Type of data set: ADME, organism-based. The settings on record: in vivo. On the set-up: dose 1.5 mg/kg, route intravenous.
Data set [23] has as its system HeLa. The data set is described as follows: Antitumor activity against human HeLa cells xenografted in nude mouse assessed as tumor weight at 10 mg/kg, iv administered every other day up to 20 days (reference value: 1.014 +/- 0.116g). Type of data set: functional.
Data set [24] concerns HeLa. As to the kind of experiment: Antitumor activity against human HeLa cells xenografted in nude mouse assessed as tumor weight at 20 mg/kg, iv administered every other day up to 20 days (reference value: 1.014 +/- 0.116g). Type of data set: functional.

Activity calls are given as the source filed them.

Regarding `COC(=O)N1N=C(c2cccc(C)c2)CC1c1cc(OC)c(OC)c(OC)c1` (centres undefined), the GI50 in data set [1] turned out to be 100 nM; in [2], 50 nM. For the same compound, the inhibition entry in [3] was “Dose-dependent effect”. Besides, the inhibition at 0.1 µM in [4] was ≤ 80%. Moreover, the outcome in data set [5], in data set [10], in data set [11], in data set [12], in data set [13] and in [14] was Active. For the same compound, the Activity in [6] was found to be 4.95%; in data set [7], 0.46%; in [9], 17.3%; in data set [23], 0.631 g; in data set [24] it was 0.266 g. Moreover, the viability at 0.1 µM in data set [8] is 75.8%. Besides, in data set [15], the Stability is given as 31.1%. Further, the half-life at 5 µM in [16] came out at 123 min; in [17], 37 min. In addition, the results for the Cmax in data set [18] and in data set [22] were 594 ng/mL and 658 ng/mL, respectively. In data set [19], this compound returned an AUC(0-inf) of 336 ng·h/mL. In [20], the half-life is 52.2 min. This compound also had a clearance in [21] of 51 mL/min/kg.

One may read the GI50 as the concentration at which growth is held to half of that of the control. In general, inhibition refers to the share of the control response that was lost under treatment. A word on the half-life: it is the time needed for the level to fall by half in the phase considered. By Cmax is commonly meant the maximum level reached in the sampled fluid or tissue. As usually defined, the AUC(0-inf) is the area under the concentration-time curve extrapolated to infinity. The clearance is the volume of plasma or blood freed of the substance per unit of time.
